The source made the active and inactive calls. The rule behind the calls is not given here.
Tests used:
CCRF-CEM = assay: Cytotoxicity against human CEM cells after 4 days by Coulter counter analysis; assay type: cell-based; details: 96 h, read-out: EC50 (the source's name)
[1] = test system: Human immunodeficiency virus 2; assay: Antiviral activity against HIV2 ROD infected in human CEM cells assessed as inhibition of virus-induced cytopathicity after 4 days; assay type: functional, organism-based; details: Human immunodeficiency virus 2, ISOLATE ROD, CCRF-CEM, 96 h
[2] = test system: Human immunodeficiency virus 1; assay: Antiviral activity against HIV1 3B infected in human CEM cells assessed as inhibition of virus-induced cytopathicity after 4 days; assay type: functional, organism-based; details: Human immunodeficiency virus 1, 3B, CCRF-CEM, 96 h
[3] = Solubility of the compound at >10 uM; assay type: physicochemical
[4] = test system: Human immunodeficiency virus 1; assay: Binding affinity to HIV1 3B recombinant gp-120 at 12.5 uM after 5 mins by surface plasmon resonance analysis
[5] = test system: Human immunodeficiency virus 1; assay: Binding affinity to HIV1 3B recombinant gp-120 at 50 uM after 5 mins by surface plasmon resonance analysis
PBMC [6] = assay: Induction of CD69 expression in human PBMC after 3 days by FACS analysis; assay type: functional, cell-based
[7] = test system: Human immunodeficiency virus 1; assay: Binding affinity to HIV1 3B recombinant gp-120 at 12.5 uM after 5 mins by surface plasmon resonance analysis in presence of […]
PBMC [8] = assay: Cytotoxicity against human PBMC at 50 uM after 3 days; assay type: cell-based; details: 72 h
[9] = Binding affinity to HIV1 ADA recombinant gp-120 after 5 mins using low density (792 RU) sensor chip by surface plasmon resonance analysis; parameters: species or system Human immunodeficiency virus 1
PBMC [10] = assay: Induction of HLA-DR expression in human PBMC after 3 days by FACS analysis; assay type: functional, cell-based
[11] = Binding affinity to HIV1 3B recombinant gp-120 after 5 mins using low density (792 RU) sensor chip by surface plasmon resonance analysis; parameters: species or system Human immunodeficiency virus 1
PBMC [12] = assay: Mitogenic activity in human PBMC after 3 days; assay type: functional, cell-based
PBMC [13] = assay: Induction of CD25 expression in human PBMC after 3 days by FACS analysis; assay type: functional, cell-based
[14] = Binding affinity to HIV1 3B recombinant gp-120 after 5 mins using high density (10400 RU) sensor chip by surface plasmon resonance analysis; parameters: species or system Human immunodeficiency virus 1
[15] = test system: Human immunodeficiency virus 1; assay: Antiviral activity against HIV1 3a-L infected in human PBMC cells assessed as inhibition of virus-induced cytopathicity after 4 days; assay type: functional, organism-based; details: Human immunodeficiency virus 1, 3a-L, 96 h

SMILES | EC50 [1] [µM] | EC50 [2] [µM] | CC50 (CCRF-CEM) [µM] | other results
CN[C@@H]1[C@H](O[C@@H]2O[C@H](CO)[C@@H](O)[C@H](OS(=O)(=O)O)[C@H]2O)[C@@H](O)[C@H](O[C@H]2c3cc(C)c(C(=O)N[C@H](C)C(=O)O)c(O)c3-c3c(cc4c(c3O)C(=O)c3cc(OC)cc(O)c3C4=O)[C@@H]2O)O[C@@H]1C [PRADIMICIN S] |  |  | > 250 | 
O=C(O)[C@H](Cc1ccccc1)Nc1nc(NCCOCCOCCNc2nc(N[C@@H](Cc3ccccc3)C(=O)O)nc(N[C@H](Cc3ccccc3)C(=O)O)n2)nc(N[C@@H](Cc2ccccc2)C(=O)O)n1 | ≥ 250 | ≥ 250 | > 250 | 
O=C(O)[C@H](Cc1ccc(O)cc1)Nc1nc(NCCN(CCNc2nc(N[C@@H](Cc3ccc(O)cc3)C(=O)O)nc(N[C@H](Cc3ccc(O)cc3)C(=O)O)n2)CCNc2nc(N[C@@H](Cc3ccc(O)cc3)C(=O)O)nc(N[C@H](Cc3ccc(O)cc3)C(=O)O)n2)nc(N[C@H](Cc2ccc(O)cc2)C(=O)O)n1 | ≥ 250 | ≥ 250 | > 250 | 
O=C(O)[C@H](Cc1ccccc1)Nc1nc(N[C@@H](Cc2ccccc2)C(=O)O)nc(N2CCN(c3nc(N[C@@H](Cc4ccccc4)C(=O)O)nc(N[C@@H](Cc4ccccc4)C(=O)O)n3)CC2)n1 | 121 | 106 | > 250 | 
CCc1c(CNc2nc(N[C@@H](Cc3c[nH]c4ccccc34)C(=O)O)nc(N[C@H](Cc3c[nH]c4ccccc34)C(=O)O)n2)c(CC)c(CNc2nc(N[C@@H](Cc3c[nH]c4ccccc34)C(=O)O)nc(N[C@H](Cc3c[nH]c4ccccc34)C(=O)O)n2)c(CC)c1CNc1nc(N[C@@H](Cc2c[nH]c3ccccc23)C(=O)O)nc(N[C@H](Cc2c[nH]c3ccccc23)C(=O)O)n1 | 22 | 19 | > 250 | Activity [4]: Active
O=C(O)[C@H](Cc1ccccc1)Nc1nc(NCCN(CCNc2nc(N[C@@H](Cc3ccccc3)C(=O)O)nc(N[C@H](Cc3ccccc3)C(=O)O)n2)CCNc2nc(N[C@@H](Cc3ccccc3)C(=O)O)nc(N[C@H](Cc3ccccc3)C(=O)O)n2)nc(N[C@H](Cc2ccccc2)C(=O)O)n1 | 216 | 65 | > 250 | 
O=C(O)[C@H](Cc1ccc(O)cc1)Nc1nc(NCCOCCOCCNc2nc(N[C@@H](Cc3ccc(O)cc3)C(=O)O)nc(N[C@H](Cc3ccc(O)cc3)C(=O)O)n2)nc(N[C@@H](Cc2ccc(O)cc2)C(=O)O)n1 | > 250 | > 250 | > 250 | 
O=C(O)[C@H](Cc1c[nH]c2ccccc12)Nc1nc(NCc2ccccc2)nc(N[C@@H](Cc2c[nH]c3ccccc23)C(=O)O)n1 |  |  |  | Activity [5]: inactive
O=C(O)C[C@H](Nc1nc(NCCN(CCNc2nc(N[C@@H](CC(=O)O)C(=O)O)nc(N[C@@H](Cc3c[nH]c4ccccc34)C(=O)O)n2)CCNc2nc(N[C@@H](Cc3c[nH]c4ccccc34)C(=O)O)nc(N[C@H](CC(=O)O)C(=O)O)n2)nc(N[C@@H](Cc2c[nH]c3ccccc23)C(=O)O)n1)C(=O)O | > 250 | 216 | > 250 | 
CCc1c(CNc2nc(N[C@@H](Cc3c[nH]c4ccccc34)C(=O)O)nc(N[C@@H](Cc3c[nH]c4ccccc34)C(=O)O)n2)c(CC)c(CNc2nc(N[C@@H](Cc3c[nH]c4ccccc34)C(=O)O)nc(N[C@@H](Cc3c[nH]c4ccccc34)C(=O)O)n2)c(CC)c1CNc1nc(N[C@@H](Cc2c[nH]c3ccccc23)C(=O)O)nc(N[C@@H](Cc2c[nH]c3ccccc23)C(=O)O)n1 | 22 | 16 | > 250 | Activity (PBMC [6]): inactive; Activity [7]: Active; Activity (PBMC [8]): Non-toxic; Kd [9]: 2510 nM; Activity [5]: Active; Activity (PBMC [10]): inactive; Kd [11]: 1610 nM; Activity (PBMC [12]): inactive; Activity (PBMC [13]): inactive; Kd [14]: 2610 nM; EC50 [15]: 20 µM; Activity [4]: Active
O=C(O)[C@H](Cc1c[nH]c2ccccc12)Nc1nc(NCCOCCOCCNc2nc(N[C@@H](Cc3c[nH]c4ccccc34)C(=O)O)nc(N[C@H](Cc3c[nH]c4ccccc34)C(=O)O)n2)nc(N[C@@H](Cc2c[nH]c3ccccc23)C(=O)O)n1 | 120 | 112 | > 250 | 
CCc1c(CNc2nc(N[C@@H](Cc3ccc(O)cc3)C(=O)O)nc(N[C@@H](Cc3c[nH]c4ccccc34)C(=O)O)n2)c(CC)c(CNc2nc(N[C@@H](Cc3ccc(O)cc3)C(=O)O)nc(N[C@@H](Cc3c[nH]c4ccccc34)C(=O)O)n2)c(CC)c1CNc1nc(N[C@@H](Cc2ccc(O)cc2)C(=O)O)nc(N[C@@H](Cc2c[nH]c3ccccc23)C(=O)O)n1 | 24 | 26 | > 250 | Activity [4]: Active
CCc1c(CNc2nc(N[C@@H](Cc3ccc(O)cc3)C(=O)O)nc(N[C@@H](Cc3ccc(O)cc3)C(=O)O)n2)c(CC)c(CNc2nc(N[C@@H](Cc3ccc(O)cc3)C(=O)O)nc(N[C@@H](Cc3ccc(O)cc3)C(=O)O)n2)c(CC)c1CNc1nc(N[C@@H](Cc2ccc(O)cc2)C(=O)O)nc(N[C@@H](Cc2ccc(O)cc2)C(=O)O)n1 | 22 | 22 | > 250 | Activity (PBMC [6]): inactive; Activity [7]: Active; Activity (PBMC [8]): Non-toxic; Kd [9]: 1710 nM; Activity [5]: Active; Activity (PBMC [10]): inactive; Kd [11]: 1970 nM; Activity (PBMC [12]): inactive; Activity (PBMC [13]): inactive; Kd [14]: 2610 nM; EC50 [15]: 20 µM; Activity [4]: Active
CCc1c(CNc2nc(N[C@@H](CC(=O)O)C(=O)O)nc(N[C@@H](Cc3c[nH]c4ccccc34)C(=O)O)n2)c(CC)c(CNc2nc(N[C@@H](CC(=O)O)C(=O)O)nc(N[C@@H](Cc3c[nH]c4ccccc34)C(=O)O)n2)c(CC)c1CNc1nc(N[C@@H](CC(=O)O)C(=O)O)nc(N[C@@H](Cc2c[nH]c3ccccc23)C(=O)O)n1 | 33 | 18 | > 250 | Activity [4]: Active
O=C(O)[C@H](Cc1ccc(O)cc1)Nc1nc(NCc2ccccc2)nc(N[C@@H](Cc2ccc(O)cc2)C(=O)O)n1 |  |  |  | Activity [5]: inactive

The next lines start with results.

EC50 [1] [µM] | EC50 [2] [µM] | SMILES | CC50 (CCRF-CEM) [µM] | other results
> 10 | > 10 | O=C(O)[C@H](Cc1ccccc1)Nc1nc(NCc2cccc(CNc3nc(N[C@@H](Cc4ccccc4)C(=O)O)nc(N[C@@H](Cc4ccccc4)C(=O)O)n3)c2)nc(N[C@@H](Cc2ccccc2)C(=O)O)n1 | > 10 | solubility [3]: Insoluble
≥ 250 | ≥ 250 | O=C(O)[C@H](Cc1ccc(O)cc1)Nc1nc(N[C@@H](Cc2ccc(O)cc2)C(=O)O)nc(N2CCN(c3nc(N[C@@H](Cc4ccc(O)cc4)C(=O)O)nc(N[C@@H](Cc4ccc(O)cc4)C(=O)O)n3)CC2)n1 | > 250 | 
5.9 | 5.2 | CN[C@@H]1[C@H](O[C@@H]2OC[C@@H](O)[C@H](O)[C@H]2O)[C@@H](O)[C@H](O[C@H]2c3cc(C)c(C(=O)N[C@H](C)C(=O)O)c(O)c3-c3c(cc4c(c3O)C(=O)c3cc(OC)cc(O)c3C4=O)[C@@H]2O)O[C@@H]1C [PRADIMICIN A] | > 50 | 
65 | 20 | O=C(O)[C@H](Cc1c[nH]c2ccccc12)Nc1nc(NCCN(CCNc2nc(N[C@@H](Cc3c[nH]c4ccccc34)C(=O)O)nc(N[C@H](Cc3c[nH]c4ccccc34)C(=O)O)n2)CCNc2nc(N[C@@H](Cc3c[nH]c4ccccc34)C(=O)O)nc(N[C@H](Cc3c[nH]c4ccccc34)C(=O)O)n2)nc(N[C@H](Cc2c[nH]c3ccccc23)C(=O)O)n1 | > 250 | 
> 10 | > 10 | CCc1c(CNc2nc(NCCc3c[nH]c4ccccc34)nc(N[C@@H](Cc3c[nH]c4ccccc34)C(=O)O)n2)c(CC)c(CNc2nc(NCCc3c[nH]c4ccccc34)nc(N[C@@H](Cc3c[nH]c4ccccc34)C(=O)O)n2)c(CC)c1CNc1nc(NCCc2c[nH]c3ccccc23)nc(N[C@@H](Cc2c[nH]c3ccccc23)C(=O)O)n1 | > 10 | solubility [3]: Insoluble; Activity [4]: Active
80 | 148 | O=C(O)[C@H](Cc1ccc(O)cc1)Nc1nc(NCc2cccc(CNc3nc(N[C@@H](Cc4ccc(O)cc4)C(=O)O)nc(N[C@@H](Cc4ccc(O)cc4)C(=O)O)n3)c2)nc(N[C@@H](Cc2ccc(O)cc2)C(=O)O)n1 | > 250 | Activity [5]: Active

From ChEMBL document CHEMBL1811857, “Targeting HIV entry through interaction with envelope glycoprotein 120 (gp120): synthesis and antiviral evaluation of 1,3,5-triazines with aromatic amino acids” (J Med Chem, 2011)
